Values quoted from earlier work as cited in PMC11071064 (Nuclear medicine and biology, 2022).

Experiments:
[1] = test system: RIPK1; details: read-out: IC50 for binding toward RIPK1
[2] = pH 7.4
[3] = test system: RIPK1; details: read-out: EC50 (potency)
[4] = not given; remark: listed apart in the source

CN1C(=O)[C@@H](NC(=O)c2n[nH]c(Cc3ccccc3)n2)COc2ccccc21 [Compound 4]
IC50 [1]: 1 nM | log D: 3.8 | solubility [2]: ~ 450 μM

CN1C(=O)C(Cc2c[nH]c3ccccc23)NC1=S (stereo not shown) [Nec-1]
EC50 [3]: 490 nM | metabolic stability t1/2 [4]: < 5 min

CN1C(=O)NC(Cc2c[nH]c3c(Cl)cccc23)C1=O (stereo not shown) [Nec-1s]
EC50 [3]: 210 nM | metabolic stability t1/2 [4]: < 5 min
